How the values were obtained:
rhesus H3 receptor [1] = target: T1, rhesus H3 receptor (Macaca mulatta, UniProt Q865E1); assay: Rhesus H3 [3H]-methylhistamine radioligand binding assay; set-up: species or system rhesus monkey (Macacca Mulatta); settings: [3H]-Methylhistamine 2 nM, rhesus H3 membranes, WGA SPA beads, Cheng-Prusoff
Method: (§1) Rhesus H3 membranes were prepared from the Flp-In T-REx 293 Cell Line (Invitrogen) stably transfected with pcDNA5/FRT/TO (Invitrogen) containing the rhesus monkey (Macacca Mulatta) 445 amino acid H3 receptor. (Genbank #AY231164). Stably transfected cultures were amplified in tissue culture flasks by standard tissue culture methods and induced to express rhesus H3 by exposure to 500 ng/ml tetracycline (Cellgro) for 24 hours. After induction, cells were dissociated from flasks utilizing Cell Stripper (Cellgro). Cells were centrifuged (1K×g, 5 min) and pellet frozen in an ethanol-dry ice bath to disrupt cell membranes. Frozen cell pellet was re-suspended in 5 mM HEPES (pH 7.4, Invitrogen) at 10 ml/1000 cm2 of harvested cells. The cell suspension was drawn through an 18 gauge needle (2-3×) followed by a 23 gauge needle (2-3×) to further disrupt cell membranes. The cell suspension was centrifuged (40K×g, 30 min). Cell membrane pellet was re-suspended in 5 mM HEPES (pH 7.4, Invitrogen) at a final protein concentration of 10 mg/ml. Rhesus H3 membranes were stored under liquid nitrogen prior to use in [3H]-Methylhistamine and GTP S radioligand binding assays.
Rhesus H3 radioligand binding assay was performed using rhesus H3 receptor membranes (prepared as described above), [3H]-Methylhistamine (Perkin Elmer) and WGA SPA beads (wheat germ agglutinin scintillation proximity assay) beads (Amersham). The assay was performed in 96-well Opti-Plates (Packard). Each reaction contained 50 μl rhesus H3 membranes (20-30 μg total protein), 50 μl WGA SPA beads (0.1 μg) and 50 μl of 83 Ci/mmol [^3H]-Methylhistamine (final concentration 2 nM) and 50 μl of tested compound. The compounds of this invention and/or vehicle were diluted with binding buffer from 10 mM DMSO stocks. Assay plates were sealed with TopSeal (Perkin Elmer) and mixed on shaker (25° C., 1 hour). Assay plates were read on TopCount scintillation counter (Packard). Results were analyzed by Hill transformation and Ki values were determined by Cheng-Prusoff equation.

rhesus H3 receptor [2] = target: T1, rhesus H3 receptor; assay: GTPγS radioligand binding assay, inhibition of rhesus H3 constitutive functional activity (inverse agonism); type: biochemical, rhesus monkey (Macacca Mulatta); set-up: concentration or dose not given beside the values; settings: rhesus H3 cell membranes, relative to basal levels
Method: as §1

T1 sequence (Q865E1 1-445): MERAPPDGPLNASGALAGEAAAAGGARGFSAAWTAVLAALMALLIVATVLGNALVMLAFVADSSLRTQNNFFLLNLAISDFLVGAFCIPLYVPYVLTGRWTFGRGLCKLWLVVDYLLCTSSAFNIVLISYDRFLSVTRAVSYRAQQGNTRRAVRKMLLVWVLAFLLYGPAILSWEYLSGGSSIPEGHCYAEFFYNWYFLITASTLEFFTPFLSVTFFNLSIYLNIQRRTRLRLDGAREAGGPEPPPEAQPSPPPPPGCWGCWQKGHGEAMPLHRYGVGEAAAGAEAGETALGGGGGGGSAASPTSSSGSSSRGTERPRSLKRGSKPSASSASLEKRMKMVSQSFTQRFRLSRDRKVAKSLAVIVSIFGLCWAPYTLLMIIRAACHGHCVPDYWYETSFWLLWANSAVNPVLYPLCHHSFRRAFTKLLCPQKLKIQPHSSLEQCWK

Structure (SMILES) | Ki (rhesus H3 receptor [1]) [nM] | Inverse Agonism: % inhibition of Basal GTPγS binding in Rhesus H3 (rhesus H3 receptor [2]) [%]
Cc1cc(N2CC[C@H](N3CCC[C@@H]3C)C2)ccc1N1CCC2(CCNCC2)C1=O [Example 6, 2-[2-Methyl-4-((2S,3′S)-2-methyl-[1,3′]bipyrrolidinyl-1′-yl)-phenyl]-2,8-diaza-spiro[4.5]decan-1-one] | 11 | −22
C[C@H]1CCCN1[C@H]1CCN(c2ccc(N3CCC4(CCN(CC5CC5)CC4)C3=O)c(C(F)(F)F)c2)C1 [Example 67, 8-Cyclopropylmethyl-2-[4-((2S,3′S)-2-methyl-[1,3′]bipyrrolidinyl-1′-yl)-2-trifluoromethyl-phenyl]-2,8-diaza-spiro[4.5]decan-1-one] | 1.4 | −12
C[C@H]1CCCN1[C@H]1CCN(c2ccc(N3CCC4(CCNCC4)C3=O)c(C(F)(F)F)c2)C1.Cl [Example 69, 2-[4-((2S,3′S)-2-Methyl-[1,3′]bipyrrolidinyl-1′-yl)-2-trifluoromethyl-phenyl]-2,8-diaza-spiro[4.5]decan-1-one Hydrochloride] | 0.09 | −28
C[C@H]1CCCN1[C@H]1CCN(c2ccc(N3CCCC4(CCN(C(=O)C5CCCCC5)CC4)C3=O)c(F)c2)C1 [Example 30, 9-Cyclohexanecarbonyl-2-[2-fluoro-4-((2S,3′S)-2-methyl-[1,3′]bipyrrolidinyl-1′-yl)-phenyl]-2,9-diaza-spiro[5.5]undecan-1-one] | 0.7 | −22
C[C@H]1CCCN1C1CCN(c2ccc(N3CCC4(CCN(CC5CCCC5)CC4)C3=O)c(F)c2)CC1 [Example 57, 8-Cyclopentyl methyl-2-{2-fluoro-4-[4-(2S-2-methyl-pyrrolidin-1-yl)-piperidin-1-yl]-phenyl}-2,8-diaza-spiro[4.5]decan-1-one] | 0.1 | −21
C[C@H]1CCCN1[C@H]1CCN(c2ccc(N3CCC4(CCN(C(=O)Cc5ccccc5)CC4)C3=O)c(C(F)(F)F)c2)C1 [Example 60, 2-[4-((2S,3′S)-2-Methyl-[1,3′]bipyrrolidinyl-1′-yl)-2-trifluoromethyl-phenyl]-8-phenylacetyl-2,8-diaza-spiro[4.5]decan-1-one] | 144 | −19
Cc1cc(N2CC[C@@H](N3CCC[C@H]3C)C2)ccc1N1CCC2(CCNCC2)C1=O.Cl [Example 7, 2-[2-Methyl-4-((2R,3′R)-2-methyl-[1,3′]bipyrrolidinyl-1′-yl)-phenyl]-2,8-diaza-spiro[4.5]decan-1-one Hydrochloride] | 15 | −22
Cc1cc(N2CC[C@@H](N3CCC[C@H]3C)C2)ccc1N1CCC2(CCN(C(=O)OC(C)(C)C)CC2)C1=O [Example 2, 2-[2-Methyl-4-((2R,3′R)-2-methyl-[1,3′]bipyrrolidinyl-1′-yl)-phenyl]-1-oxo-2,8-diaza-spiro[4.5]decane-8-carboxylic acid tert-butyl ester] | 248 | −30
Cc1cc(N2CCC(N3CCCC3C)C2)ccc1N1CCC2(CCN(C(=O)OC(C)(C)C)CC2)C1=O (centres unmarked) [Example 5, 2-[2-Methyl-4-(2-methyl-[1,3′]bipyrrolidinyl-1′-yl)-phenyl]-1-oxo-2,8-diaza-spiro[4.5]decane-8-carboxylic acid tert-butyl ester] | 18 | −13
C[C@H]1CCCN1C1CCN(c2ccc(N3CCC4(CCN(C(=O)OC(C)(C)C)CC4)C3=O)c(C(F)(F)F)c2)CC1 [Example 39, 2-{4-[4-(2S-2-Methyl-pyrrolidin-1-yl)-piperidin-1-yl]-2-trifluoromethyl-phenyl}-1-oxo-2,8-diaza-spiro[4.5]decane-8-carboxylic acid tert-butyl ester] | 0.9 | −22
C[C@H]1CCCN1[C@H]1CCN(c2ccc(N3CCC4(CCN(C(=O)c5ccccc5)CC4)C3=O)c(C(F)(F)F)c2)C1 [Example 63, 8-Benzoyl-2-[4-((2S,3′S)-2-methyl-[1,3′]bipyrrolidinyl-1′-yl)-2-trifluoromethyl-phenyl]-2,8-diaza-spiro[4.5]decan-1-one] | 64 | −18
Cc1cc(N2CC[C@H](N3CCC[C@@H]3C)C2)ccc1N1CCC2(CCN(CC3CCCC3)CC2)C1=O [Example 13, 8-Cyclopentylmethyl-2-[2-methyl-4-((2S,3′S)-2-methyl-[1,3′]bipyrrolidinyl-1′-l)-phenyl]-2,8-diaza-spiro[4.5]decan-1-one] | 0.8 | −37
Cc1cc(N2CCC(N3CCCC3C)C2)ccc1N1CCC2(CCN(C(=O)c3ccc(OC(F)(F)F)cc3)CC2)C1=O (centres unmarked) [Example 18, 2-[2-Methyl-4-(2-methyl-[1,3′]bipyrrolidinyl-1′-yl)-phenyl]-8-(4-trifluoromethoxy-benzoyl)-2,8-diaza-spiro[4.5]decan-1-one] | 6.2 | −10
C[C@H]1CCCCN1[C@H]1CCN(c2ccc(N3CCC4(CCN(S(=O)(=O)c5ccc(F)cc5)CC4)C3=O)cc2)C1 [Example 53, 8-(4-Fluoro-benzenesulfonyl)-2-{4-[3-((2S,3′S)-2-methyl-piperidin-1-yl)-pyrrolidin-1-yl]-phenyl}-2,8-diaza-spiro[4.5]decan-1-one] | 1.9 | −13
C[C@H]1CCCN1[C@H]1CCN(c2ccc(N3CCCC4(CCN(C(=O)C5CCOCC5)CC4)C3=O)c(F)c2)C1 [Example 31, 2-[2-Fluoro-4-((2S,3′S)-2-methyl-[1,3′]bipyrrolidinyl-1′-yl)-phenyl]-9-(tetrahydro-pyran-4-carbonyl)-2,9-diaza-spiro[5.5]undecan-1-one] | 0.4 | −19
C[C@H]1CCCCN1[C@H]1CCN(c2ccc(N3CCC4(CCN(C(=O)OC(C)(C)C)CC4)C3=O)c(F)c2)C1 [Example 43, 2-{4-[3-((2S,3′S)-2-Methyl-piperidin-1-yl)-pyrrolidin-1-yl]-2-fluoro-phenyl}-1-oxo-2,8-diaza-spiro[4.5]decane-8-carboxylic acid tert-butyl ester] | 4.3 | −19
COc1ccc(S(=O)(=O)N2CCC3(CCN(c4ccc(N5CC[C@H](N6CCC[C@@H]6C)C5)cc4C(F)(F)F)C3=O)CC2)cc1 [Example 65, 8-(4-Methoxy-benzenesulfonyl)-2-[4-((2S,3′S)-2-methyl-[1,3′]bipyrrolidinyl-1′-yl)-2-trifluoromethyl-phenyl]-2,8-diaza-spiro[4.5]decan-1-one] | 10.6 | −18
C[C@H]1CCCN1C1CCN(c2ccc(N3CCC4(CCN(C(=O)c5ccc(F)cc5)CC4)C3=O)cc2)CC1 [Example 51, 8-(4-Fluoro-benzoyl)-2-{4-[4-(2S-2-methyl-pyrrolidin-1-yl)-piperidin-1-yl]-phenyl}-2,8-diaza-spiro[4.5]decan-1-one] | 0.08 | −17
C[C@H]1CCCN1[C@H]1CCN(c2ccc(N3CCC4(CCN(C(=O)c5ccoc5)CC4)C3=O)c(C(F)(F)F)c2)C1 [Example 64, 8-(Furan-3-carbonyl)-2-[4-((2S,3′S)-2-methyl-[1,3′]bipyrrolidinyl-1′-yl)-2-trifluoromethyl-phenyl]-2,8-diaza-spiro[4.5]decan-1-one] | 9.6 | −19

— US8604046B2, “Substituted piperidine spiro pyrrolidinone and piperidinone, preparation and therapeutic use thereof” (Sanofi, priority 2008, dated 2013)
